Measurements reported in paper PMC10056008 (Pharmaceuticals, 2023).
Where two headings read alike, the source gives them in different places.

Assays:
[1] = Pharmacokinetics of dabigatran etexilate, dabigatran and dabigatran acylglucuronide in plasma after 150 mg dabigatran etexilate with or without simvastatin; format: in vivo, human; conditions: for AUClast with simvastatin as % of value when administered alone / Cmax with simvastatin as % of value when administered alone: co-administered with simvastatin vs alone; for increase of AUClast after simvastatin co-administration: compared to dabigatran administered alone
Protocol: An open-label, two-period, single sequence clinical study was conducted. After an overnight fast and drinking 200 mL of water one hour before drug administration, eligible subjects were administered with a capsule of dabigatran etexilate 150 mg ([…]®) on the first day of the study. Blood samples for pharmacokinetic and pharmacodynamic analyses were obtained using EDTA tubes and citrate tubes, respectively. […] Subjects remained at fasting stage until 4 h after the administration. […] To ensure compliance, subjects visited the study site for every drug administration. […] Blood samples were obtained at the same time point scheduled as the first day of the study. Adverse events were collected during the entire study period. This study was conducted in accordance with the Declaration of Helsinki, good clinical practice, and local regulation. The study was approved by the Institutional Review Board at Korea University Guro Hospital (2018GR0336, date of approval: 11 October 2018) and registered at ClinicalTrials.gov (NCT03728101). Separate plasma samples were kept frozen below -70 °C until analysis. Plasma concentrations of dabigatran etexilate, dabigatran, and dabigatran acylglucuronide were quantified using a high-performance liquid chromatography (Nanospace series SI-2, Shiseido Co., Ltd., Tokyo, Japan) coupled with tandem mass spectrometry (API4000, AB SCIEX LLC, Framingham, MA, USA) method. The method was validated in terms of selectivity, linearity, precision, accuracy, recovery, matrix effect, and stability prior to the analysis. In brief, 100 μL of plasma samples were deproteinized using 400 μL of acetonitrile and centrifuged at 13,000× g for 20 min. Dabigatran-d3 was used as an internal standard. The supernatants were evaporated and then dissolved in a 300 μL mobile phase consisting of acetonitrile and 10 mM ammonium formate (215:85, v/v). These samples were injected onto an Atlantis HILIC SilicaTM column (2.1 mm × 150 mm, 3 μm, Waters, Milford, MA, USA) at a flow rate of 0.3 mL/min. The mass spectrometer equipped with an electrospray ionization source was operated in a positive ion mode. Selected ion pairs of m/z 629.464→290.100 for dabigatran etexilate, m/z 472.300→289.100 for dabigatran, m/z 648.382→289.100 for dabigatran acylglucuronide were detected. […] Pharmacokinetic parameters of dabigatran etexilate, dabigatran, and dabigatran acylglucuronide were derived from noncompartmental analysis using Phoenix Winnonlin® version 8.3 (Certara, Princeton, NJ, USA). Observed values from individual time-concentration profiles were used for Cmax and Tmax. Area under the time-concentration curve (AUC) was calculated using linear-up log-down trapezoidal rule. The AUC from 0 h to infinity (AUCinf) was calculated as follows: AUCinf = AUC + Ct/ke, where Ct was the last plasma concentration and ke was the elimination rate constant. […] Mean residence time (MRT) was calculated as area under the moment curve from time of dosing to the last measurable concentration divided by AUClast. All statistical analyses were performed using SAS® version 9.4 (SAS Institute Inc., Cary, NC, USA). Descriptive statistics were used to summarize demographic, pharmacokinetic, and pharmacodynamic data. A linear mixed effects model was used to compare Cmax, AUClast, and AUCinf between two treatment periods.

[2] = Adverse events, vital signs, clinical laboratory tests, electrocardiogram; format: in vivo, human; conditions: 12 healthy subjects; except one subject with mild pharyngitis, which resolved
Protocol: An open-label, two-period, single sequence clinical study was conducted. After an overnight fast and drinking 200 mL of water one hour before drug administration, eligible subjects were administered with a capsule of dabigatran etexilate 150 mg ([…]®) on the first day of the study. Blood samples for pharmacokinetic and pharmacodynamic analyses were obtained using EDTA tubes and citrate tubes, respectively. […] Subjects remained at fasting stage until 4 h after the administration. […] To ensure compliance, subjects visited the study site for every drug administration. […] Blood samples were obtained at the same time point scheduled as the first day of the study. Adverse events were collected during the entire study period. This study was conducted in accordance with the Declaration of Helsinki, good clinical practice, and local regulation.

[3] = test system: coagulation; assay: Coagulation assay (aPTT, PT, dPT, TT, fibrinogen) in plasma of dosed subjects; format: in vivo, human
Protocol: An open-label, two-period, single sequence clinical study was conducted. After an overnight fast and drinking 200 mL of water one hour before drug administration, eligible subjects were administered with a capsule of dabigatran etexilate 150 mg ([…]®) on the first day of the study. Blood samples for pharmacokinetic and pharmacodynamic analyses were obtained using EDTA tubes and citrate tubes, respectively. […] Subjects remained at fasting stage until 4 h after the administration. […] To ensure compliance, subjects visited the study site for every drug administration. […] Blood samples were obtained at the same time point scheduled as the first day of the study. Adverse events were collected during the entire study period. This study was conducted in accordance with the Declaration of Helsinki, good clinical practice, and local regulation. The study was approved by the Institutional Review Board at Korea University Guro Hospital (2018GR0336, date of approval: 11 October 2018) and registered at ClinicalTrials.gov (NCT03728101). Anticoagulant assays of aPTT, PT, dPT, TT, and fibrinogen were measured using STA® Compact Max (Stago, Asnieres, France) according to the manufacturer's instructions. […] To measure aPTT, 50 μL of plasma sample was placed in a cuvette in the presence of STA®-PTT (50 μL) and 50 μL of 0.025 M CaCl2. For fibrinogen, 7.5 μL of plasma which was automatically diluted with Owren-Koller buffer was placed into a cuvette and then 50 μL of […] was added. For pharmacodynamic assessment, Phoenix Winnonlin® version 8.3 (Pharsight, Mountain View, CA, USA) was used to calculate AUEC with the linear trapezoidal method and Rmax was directly determined from individual profiles.

[4] = cited from earlier work
[5] = test system: thrombin generation; assay: Thrombin generation assay (TGA) in plasma of dosed subjects; format: in vivo, human
Protocol: An open-label, two-period, single sequence clinical study was conducted. After an overnight fast and drinking 200 mL of water one hour before drug administration, eligible subjects were administered with a capsule of dabigatran etexilate 150 mg ([…]®) on the first day of the study. Blood samples for pharmacokinetic and pharmacodynamic analyses were obtained using EDTA tubes and citrate tubes, respectively. […] Subjects remained at fasting stage until 4 h after the administration. […] To ensure compliance, subjects visited the study site for every drug administration. […] Blood samples were obtained at the same time point scheduled as the first day of the study. Adverse events were collected during the entire study period. This study was conducted in accordance with the Declaration of Helsinki, good clinical practice, and local regulation. […] TGA was performed using a Technothrombin® TGA kit (Technoclone, Vienna, Austria) on a fully automated, computer-controlled microplate reader (Flexstation 3; Molecular Devices, San Jose, CA, USA) with a 360 nm excitation wavelength and 460 nm emission wavelength. In brief, 30 μL of plasma samples were mixed with 25 μL of 400 μmol/L fluorogenic substrate ([…]; Bachem, Bubendorf, Switzerland). The assay was initiated by dispensing 10 μL of 5 pmol/L recombinant human tissue factor lipidated with synthetic phospholipids and 10 μL of 15 mmol/L CaCl2. TGA results are expressed as Cmax, AUC, Tmax, and lag time. For pharmacodynamic assessment, Phoenix Winnonlin® version 8.3 (Pharsight, Mountain View, CA, USA) was used to calculate AUEC with the linear trapezoidal method and Rmax was directly determined from individual profiles.

[6] = test system: CES1; conditions: in vitro; cited from earlier work
[7] = test system: recombinant CES1A1; conditions: cited from earlier work
[8] = 150 mg dabigatran etexilate alone, mean (SD)
[9] = co-administered with simvastatin 40 mg once daily, day 7, mean (SD)
[10] = human, oral, 150 mg dabigatran etexilate alone, plasma, mean (SD)
[11] = human, plasma, oral, 150 mg dabigatran etexilate alone, mean (SD)
[12] = human, plasma, oral, 150 mg dabigatran etexilate alone, mean (SD), read-out: Cmax
[13] = human, plasma, oral, 150 mg dabigatran etexilate alone, mean (SD), read-out: MRT
[14] = dabigatran with simvastatin, mean (SD)
[15] = before dabigatran etexilate administration, period with simvastatin 40 mg once daily, mean (SD)
[16] = before vs after once daily simvastatin for 7 days

Cn1c(CNc2ccc(C(=N)N)cc2)nc2cc(C(=O)N(CCC(=O)OC3O[C@H](C(=O)O)[C@@H](O)[C@H](O)[C@H]3O)c3ccccn3)ccc21 (some centres unmarked) [Dabigatran acylglucuronide]
AUCinf ([1]; human, in vivo, 150 mg): 1576.5 (1154.0) h∙ng/mL
AUClast ([1]; human, in vivo, 150 mg): 1480.1 (1090.5) h∙ng/mL
CL/F ([1]; human, in vivo, 150 mg): 176.8 (161.8) L/h
Cmax ([1]; human, in vivo, 150 mg): 266.8 (187.1) ng/mL
MRT ([1]; human, in vivo, 150 mg): 6.8 (0.9) h
Tmax ([1]; human, in vivo, 150 mg): 2 (1.5–4) h
t1/2 ([1]; human, in vivo, 150 mg): 6.4 (1.9) h

CCCCCCOC(=O)NC(=N)c1ccc(NCc2nc3cc(C(=O)N(CCC(=O)OCC)c4ccccn4)ccc3n2C)cc1 [Dabigatran etexilate]
adverse events, vital signs, clinical laboratory tests, electrocardiogram [2]: no adverse events or clinically significant changes
CL/F [1, 8]: 12,208.4 (16,447.7) L/h
CL/F [1, 9]: 5235.1 (2729.4) L/h
AUClast with simvastatin as % of value when administered alone [1]: 147%
Cmax with simvastatin as % of value when administered alone [1]: 138%
increase of AUClast after simvastatin co-administration [1]: 47%
AUC(0-inf) [1, 10]: 33.7 ng·h/mL
AUC(0-t) [1, 10]: 26.1 ng·h/mL
half-life [1, 11]: 3.4 h
Cmax [1, 12]: 24.5 ng/mL
MRT [1, 13]: 1.9 h
Tmax ([1]; human, plasma, oral, 150 mg dabigatran etexilate alone, median (min–max), read-out: Tmax): 1 h
time of highest mean value of aPTT, PT, dPT and TT ([3]; after administration of dabigatran etexilate): 2 to 4 h
absolute bioavailability [4]: 7%
increase in exposure in mild renal impairment patients vs healthy subjects ([4]; single dose): 1.5 times

[H]/N=C(/N)c1ccc(NCc2nc3cc(C(=O)N(CCC(=O)O)c4ccccn4)ccc3n2C)cc1 [Dabigatran]
CL/F [1, 8]: 362.3 (331.8) L/h
Tmax ([1]; 150 mg dabigatran etexilate alone, median (min–max)): 2 (1–4) h
CL/F [1, 9]: 275.8 (197.4) L/h
AUClast with simvastatin as % of value when administered alone [1]: 121%
Cmax with simvastatin as % of value when administered alone [1]: 124%
increase of AUClast after simvastatin co-administration [1]: 21%
AUC(0-inf) [1, 10]: 664 ng·h/mL
AUC(0-t) [1, 10]: 617 ng·h/mL
half-life [1, 11]: 6.1 h
Cmax [1, 12]: 87 ng/mL
MRT [1, 13]: 7.1 h
Fibrinogen AUEC ([3]; dabigatran alone, mean (SD)): 6249.8 (1133.1) h∙mg/dL
Fibrinogen Rmax ([3]; dabigatran alone, mean (SD)): 288.0 (55.9) mg/dL
PT (INR) AUEC ([3]; dabigatran alone, mean (SD)): 26.9 (1.4)
PT (INR) Rmax ([3]; dabigatran alone, mean (SD)): 1.3 (0.1)
PT (sec) AUEC ([3]; dabigatran alone, mean (SD)): 344.9 (14.3) s∙h
PT (sec) Rmax ([3]; dabigatran alone, mean (SD)): 16.6 (1.4) s
TT AUEC ([3]; dabigatran alone, mean (SD)): 1690.1 (535.9) s∙h
TT Rmax ([3]; dabigatran alone, mean (SD)): 169.2 (74.0) s
aPTT AUEC ([3]; dabigatran alone, mean (SD)): 1203.1 (153.1) s∙h
aPTT Rmax ([3]; dabigatran alone, mean (SD)): 69.5 (13.8) s
dPT (1:256) AUEC ([3]; dabigatran alone, mean (SD)): 1404.8 (184.7) s∙h
dPT (1:256) Rmax ([3]; dabigatran alone, mean (SD)): 87.5 (19.2) s
Fibrinogen AUEC [3, 14]: 6040.9 (758.3) h∙mg/dL
Fibrinogen Rmax [3, 14]: 309.3 (96.0) mg/dL
PT (INR) AUEC [3, 14]: 27.7 (1.2)
PT (INR) Rmax [3, 14]: 1.4 (0.1)
PT (sec) AUEC [3, 14]: 353.8 (12.3) s∙h
PT (sec) Rmax [3, 14]: 17.2 (1.4) s
TT AUEC [3, 14]: 1976.2 (643.8) s∙h
TT Rmax [3, 14]: 180.7 (50.4) s
aPTT AUEC [3, 14]: 1235.7 (131.7) s∙h
aPTT Rmax [3, 14]: 71.7 (12.2) s
dPT (1:256) AUEC [3, 14]: 1482.9 (144.9) s∙h
dPT (1:256) Rmax [3, 14]: 92.5 (15.3) s
influence of atorvastatin on pharmacokinetics or pharmacodynamics of dabigatran ([4]; healthy volunteers): No influence
fraction excreted via urine ([4]; intravenous dabigatran): 85%
Thrombin Generation AUC AUEC ([5]; dabigatran alone, mean (SD)): 84,994.8 (14,977.1) nM∙min∙h
Thrombin Generation AUC Rmax ([5]; dabigatran alone, mean (SD)): 2423.6 (734.9) nM∙min
Thrombin Generation Lag time AUEC ([5]; dabigatran alone, mean (SD)): 131.7 (20.8) min∙h
Thrombin Generation Lag time Rmax ([5]; dabigatran alone, mean (SD)): 7.8 (1.7) min
Thrombin Generation AUC AUEC [5, 14]: 79,286.4 (10,676.3) nM∙min∙h
Thrombin Generation AUC Rmax [5, 14]: 2231.7 (326.0) nM∙min
Thrombin Generation Lag time AUEC [5, 14]: 128.5 (20.1) min∙h
Thrombin Generation Lag time Rmax [5, 14]: 8.0 (1.5) min

CCC(C)(C)C(=O)O[C@H]1C[C@@H](C)C=C2C=C[C@H](C)[C@H](CC[C@@H]3C[C@@H](O)CC(=O)O3)[C@H]21 [Simvastatin]
effect on CES1-mediated hydrolysis of clopidogrel [6]: can inhibit
effect on imidapril hydrolase activity [7]: inhibitory effects
Fibrinogen, baseline [3, 15]: 259.3 (39.4) mg/dL
PT (INR), baseline [3, 15]: 1.0 (0.1) INR
PT, baseline [3, 15]: 13.7 (0.6) s
TT, baseline [3, 15]: 16.2 (0.9) s
aPTT, baseline [3, 15]: 40.4 (3.3) s
dPT, baseline [3, 15]: 43.2 (1.8) s
anticoagulant effect of simvastatin without dabigatran, coagulation assays [3, 16]: no significant difference
elimination half-life [4]: about 2.8 h
Thrombin Generation Assay AUC (endogenous thrombin potential), baseline [5, 15]: 4073.1 (642.2) nM∙min
Thrombin Generation Assay Tmax, baseline [5, 15]: 7.3 (0.8) min
Thrombin Generation Assay lag time, baseline [5, 15]: 3.5 (0.5) min
anticoagulant effect of simvastatin without dabigatran, thrombin generation [5, 16]: no significant difference

CCC(C)(C)C(=O)O[C@H]1C[C@@H](C)C=C2C=C[C@H](C)[C@H](CC[C@@H](O)C[C@@H](O)CC(=O)O)[C@H]21 [simvastatin acid]
Time to reach Cmax (Tmax) ([4]; human, in vivo): ~4.2 h
elimination half-life ([4]; human, in vivo): ~4.4 h
